This note sets out measurements from patent US20250034159A1, “INHIBITORS OF EPIDERMAL GROWTH FACTOR RECEPTOR” (ORIC Pharmaceuticals, Inc., priority 2021, published 2025).

Experiment [1] addresses recombinant human EGFR exon 19 deletion/C797S double mutant protein (Homo sapiens (Human), UniProt P00533, C797S/DEL746-750). Put plainly: Biological Activity Assay C: biochemical assay against EGFR exon 19 deletion/C797S protein (EGFR d19/CS). The method in brief:
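IC50 values were fitted with a 4-parameter model to reaction slopes taken from 90 kinetic reads spaced 120 s apart. The Phosphosens sensor/ATP working solution was 40 uM/4 mM, and compound was dosed as 16-point dilutions at 2.5% final DMSO.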

The subject of the next experiment is Ba/F3_EGFR WT cells. Kind of experiment: Biological Activity Assay D: BaF3 cell proliferation assay, EGFR wild-type (BaF3 WT). The experiment is classed as cell-based. The settings on record: Ba/F3 EGFR, read-out: BaF3 WT IC50.
The test system of a further experiment is BaF3_EGFR LR/CS cells. Kind of experiment: Biological Activity Assay D: BaF3 cell proliferation assay, EGFR L858R/C797S mutant (BaF3 LR/CS). It counts as cell-based. The settings on record: Ba/F3 EGFR, read-out: BaF3 LR/CS IC50.
Another experiment has as its system BaF3_EGFR d19/CS cells. Kind of experiment: Biological Activity Assay D: BaF3 cell proliferation assay, EGFR exon 19 deletion/C797S (BaF3 d19/CS). The experiment is classed as cell-based. The note with it: Ba/F3 EGFR, read-out: BaF3 d19/CS IC50.
In experiment [2] the target is recombinant human EGFR L858R/C797S double mutant protein (Homo sapiens (Human), UniProt P00533, C797S/L858R). Put plainly: Biological Activity Assay B: biochemical assay against EGFR L858R/C797S protein (EGFR LR/CS). The protocol:
In Row A of a 384-well polypropylene plate, was added 48 μL of DMSO. In wells A1 and A24, were added 12 μL of DMSO. […] To a well in Row A were added 12 μL of each 10 mM test compound stock (100% DMSO). […] The final intermediate dilution plate contained 4×16-point compound serial dilutions in assay buffer. The DMSO concentration was 10%. The intermediate compound dilution plate was transferred to the Bravo and the “5 uL dispense into ARP.pro” protocol was run. To the black low volume assay ready plates, were added 5 μL of 40 uM Phosphosens peptide sensor/4 mM ATP working solution to each well. […] To column 24, was added 10 μL of assay buffer. The final DMSO concentration was 2.5%. […] The plates were sealed with the TopSeal-A Plus plate seals. […] Set for 90 cycles with 120 second interval. […] The slope of each curve was constructed using Dotmatics in each well, and each IC50s was calculated using a 4-parameter fit model.

Setting [3] is: Ba/F3_EGFR WT cells, ~72 hours, CellTiter-Glo.
Where [4] appears, read: BaF3_EGFR LR/CS cells, ~72 hours, CellTiter-Glo.
Setting [5] is: BaF3_EGFR d19/CS cells, ~72 hours, CellTiter-Glo.

pIC50: −log10 of the molar value. Read-outs that look alike come from different tables or passages of the source.

Chain of recombinant human EGFR exon 19 deletion/C797S double mutant protein (P00533 other isoform, or with tags, fused parts or gaps C797S/del 1-668/del 746-750 limits assumed): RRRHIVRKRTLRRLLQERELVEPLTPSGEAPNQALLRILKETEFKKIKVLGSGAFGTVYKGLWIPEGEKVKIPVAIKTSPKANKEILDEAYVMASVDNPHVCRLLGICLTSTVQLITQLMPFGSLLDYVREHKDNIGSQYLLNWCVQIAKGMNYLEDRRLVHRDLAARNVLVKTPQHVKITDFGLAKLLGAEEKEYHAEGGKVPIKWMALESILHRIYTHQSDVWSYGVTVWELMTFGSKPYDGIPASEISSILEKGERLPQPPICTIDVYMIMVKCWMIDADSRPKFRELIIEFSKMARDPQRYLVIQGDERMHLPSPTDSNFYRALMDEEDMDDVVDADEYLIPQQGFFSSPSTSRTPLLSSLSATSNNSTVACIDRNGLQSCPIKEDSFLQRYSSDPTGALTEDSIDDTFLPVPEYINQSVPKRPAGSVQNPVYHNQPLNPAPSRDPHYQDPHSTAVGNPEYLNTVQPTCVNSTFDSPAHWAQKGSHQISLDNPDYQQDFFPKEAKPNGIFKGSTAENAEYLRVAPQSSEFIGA
Chain of recombinant human EGFR L858R/C797S double mutant protein (P00533 25-1210 C797S/L858R): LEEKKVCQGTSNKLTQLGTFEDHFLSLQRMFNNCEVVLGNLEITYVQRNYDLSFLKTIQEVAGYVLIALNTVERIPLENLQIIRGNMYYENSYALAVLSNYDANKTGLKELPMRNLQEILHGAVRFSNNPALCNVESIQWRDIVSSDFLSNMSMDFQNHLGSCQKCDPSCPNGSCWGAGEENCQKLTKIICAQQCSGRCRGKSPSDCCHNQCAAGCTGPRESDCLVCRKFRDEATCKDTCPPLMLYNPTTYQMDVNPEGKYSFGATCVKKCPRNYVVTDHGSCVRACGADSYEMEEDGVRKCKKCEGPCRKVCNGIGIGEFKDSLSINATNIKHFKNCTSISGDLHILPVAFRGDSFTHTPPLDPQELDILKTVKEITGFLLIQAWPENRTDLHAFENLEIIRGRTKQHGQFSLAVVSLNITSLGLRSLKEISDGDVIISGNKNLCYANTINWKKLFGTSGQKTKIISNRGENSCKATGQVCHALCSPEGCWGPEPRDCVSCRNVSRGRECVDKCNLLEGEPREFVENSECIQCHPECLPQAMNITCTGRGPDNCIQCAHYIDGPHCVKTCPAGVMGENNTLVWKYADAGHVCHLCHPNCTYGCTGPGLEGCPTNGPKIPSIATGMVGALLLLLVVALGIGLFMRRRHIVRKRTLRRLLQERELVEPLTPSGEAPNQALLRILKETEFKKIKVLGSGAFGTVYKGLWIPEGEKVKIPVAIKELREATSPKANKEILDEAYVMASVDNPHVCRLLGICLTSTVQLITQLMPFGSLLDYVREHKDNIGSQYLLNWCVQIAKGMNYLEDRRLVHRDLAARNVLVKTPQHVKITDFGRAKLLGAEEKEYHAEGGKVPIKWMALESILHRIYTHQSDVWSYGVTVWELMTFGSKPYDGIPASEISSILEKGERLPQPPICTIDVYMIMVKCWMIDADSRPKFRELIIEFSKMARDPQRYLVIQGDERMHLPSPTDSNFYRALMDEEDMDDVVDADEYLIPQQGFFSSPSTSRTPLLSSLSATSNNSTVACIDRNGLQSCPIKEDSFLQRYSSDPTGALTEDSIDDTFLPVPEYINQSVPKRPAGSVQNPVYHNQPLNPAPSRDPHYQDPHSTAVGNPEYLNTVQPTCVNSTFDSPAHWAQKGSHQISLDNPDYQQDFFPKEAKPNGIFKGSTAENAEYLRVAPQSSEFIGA

On to `NC(=O)CCc1nc(-c2ccc(F)cc2)c(-c2ncnc3oc(-c4ccccc4)cc23)o1` [Example 49, 3-[4-(4-fluorophenyl)-5-(6-phenylfuro[2,3-d]pyrimidin-4-yl)-1,3-oxazol-2-yl]propanamide], for which the pIC50 in experiment [1] is 8.75; with Ba/F3_EGFR WT cells (setting [3]), 4.70; in the experiment with BaF3_EGFR LR/CS cells (setting [4]), 6.88; in the experiment with BaF3_EGFR d19/CS cells (setting [5]) it was 6.60; in experiment [2], 8.47.
`CS(=O)(=O)N1CC[C@H](n2cc(-c3ncnc4oc(-c5ccccc5)cc34)c(-c3ccc(F)cc3)n2)C1` (single isomer, unassigned) [Example 102]: the pIC50 is 9.70 in experiment [1]; 6.79 with Ba/F3_EGFR WT cells (setting [3]); 7.68 with BaF3_EGFR LR/CS cells (setting [4]); 7.78 in the experiment with BaF3_EGFR d19/CS cells (setting [5]); 9.46 in experiment [2].
With `CS(=O)(=O)NCCn1cc(-c2ncnc3oc(-c4ccccc4)cc23)c(-c2ccc(F)cc2)n1` [Example 103, N-{2-[3-(4-Fluorophenyl)-4-(6-phenylfuro[2,3-d]pyrimidin-4-yl)-1H-pyrazol-1-yl]ethyl}methanesulfonamide], the pIC50 in experiment [1] is 9.89; in the experiment with Ba/F3_EGFR WT cells (setting [3]), 6.64; with BaF3_EGFR LR/CS cells (setting [4]), 8.08; with BaF3_EGFR d19/CS cells (setting [5]), 7.76; in experiment [2], 9.80.
`OCCCc1nc(-c2ccc(F)cc2)c(-c2ncnc3oc(-c4ccccc4)cc23)o1` [Example 35, 3-[4-(4-Fluorophenyl)-5-(6-phenylfuro[2,3-d]pyrimidin-4-yl)-1,3-oxazol-2-yl]propan-1-ol]: the pIC50 is 9.27 in experiment [1]; 5.23 in the experiment with Ba/F3_EGFR WT cells (72 h); 6.87 in the experiment on BaF3_EGFR LR/CS cells (72 h); 6.73 in the experiment with BaF3_EGFR d19/CS cells (72 h); 9.02 in experiment [2].
As to `OCCCc1nc(-c2ccc(F)cc2)c(-c2ccnc3[nH]c(-c4ccccc4)cc23)s1` [Example 8, 3-[4-(4-Fluorophenyl)-5-(2-phenyl-1H-pyrrolo[2,3-b]pyridin-4-yl)-1,3-thiazol-2-yl]propan-1-01], the pIC50 in experiment [1] was 8.94; with Ba/F3_EGFR WT cells (setting [3]), 6.12; with BaF3_EGFR LR/CS cells (setting [4]) it was 7.71; in the experiment with BaF3_EGFR d19/CS cells (setting [5]) it was 7.71; in experiment [2], 8.96.
Consider `OC1(CCn2cc(-c3ncnc4oc(-c5ccccc5)cc34)c(-c3ccc(F)cc3)n2)CC1` [Example 24, 1-{2-[3-(4-fluorophenyl)-4-(6-phenylfuro[2,3-d]pyrimidin-4-yl)-1H-pyrazol-1-yl]ethyl}cyclopropan-1-ol], for which the pIC50 is 9.04 in experiment [1]; 5.60 in the experiment with Ba/F3_EGFR WT cells (setting [3]); 6.90 in the experiment with BaF3_EGFR LR/CS cells (setting [4]); 7.35 in the experiment on BaF3_EGFR d19/CS cells (setting [5]); 8.95 in experiment [2].
As to `COC(C)(C)Cn1cc(-c2ncnc3oc(-c4ccccc4)cc23)c(-c2ccc(F)cc2)n1` [Example 93, 4-[3-(4-fluorophenyl)-1-(2-methoxy-2-methylpropyl)-1H-pyrazol-4-yl]-6-phenylfuro[2,3-d]pyrimidine], the pIC50 in experiment [1] was 9.14; with Ba/F3_EGFR WT cells (setting [3]), 5.37; with BaF3_EGFR LR/CS cells (setting [4]), 6.74; in the experiment on BaF3_EGFR d19/CS cells (setting [5]), 6.35; in experiment [2] it was 9.04.
Consider `OCCCCn1nc(-c2ccc(F)cc2)c(-c2ccnc3[nH]c(-c4ccccc4)cc23)n1` [Example 23, 4-[4-(4-Fluorophenyl)-5-(2-phenyl-1H-pyrrolo[2,3-b]pyridin-4-yl)-2H-1,2,3-triazol-2-yl]butan-1-ol], for which the pIC50 was 9.20 in experiment [1]; 5.58 with Ba/F3_EGFR WT cells (setting [3]); 7.16 with BaF3_EGFR LR/CS cells (setting [4]); 7.50 in the experiment on BaF3_EGFR d19/CS cells (setting [5]); 8.96 in experiment [2].
For `Fc1ccc(-c2nn(C3COC3)cc2-c2ncnc3oc(-c4ccccc4)nc23)cc1` [Example 80, 7-[3-(4-fluorophenyl)-1-(oxetan-3-yl)-1H-pyrazol-4-yl]-2-phenyl[1,3]oxazolo[5,4-d]pyrimidine], the pIC50 in experiment [1] is 8.49; in the experiment on BaF3_EGFR LR/CS cells (setting [4]), 6.84; in the experiment with BaF3_EGFR d19/CS cells (setting [5]), 6.41; in experiment [2], 8.20.
For `Fc1ccc(-c2nn(C3CC(F)(F)C3)cc2-c2ncnc3oc(-c4ccccc4)cc23)cc1` [Example 170, 4-[1-(3,3-difluorocyclobutyl)-3-(4-fluorophenyl)-1H-pyrazol-4-yl]-6-phenylfuro[2,3-d]pyrimidine], the pIC50 in experiment [1] was 8.86; with Ba/F3_EGFR WT cells (setting [3]) it was 5.32; with BaF3_EGFR LR/CS cells (setting [4]), 7.01; in the experiment with BaF3_EGFR d19/CS cells (setting [5]), 6.67.
As for `CC(C)(O)Cn1cc(-c2ncnc3[nH]c(-c4ccccc4)nc23)c(-c2ccc(F)cc2)n1` [Example 130, 1-[3-(4-Fluorophenyl)-4-(8-phenyl-9H-purin-6-yl)-1H-pyrazol-1-yl]-2-methylpropan-2-ol], the pIC50 in experiment [1] was 9.92; in the experiment with Ba/F3_EGFR WT cells (setting [3]), 5.63; in the experiment on BaF3_EGFR LR/CS cells (setting [4]), 8.00; in the experiment with BaF3_EGFR d19/CS cells (setting [5]), 7.92.
As for `OCCCn1cc(-c2ncnc3sc(-c4ccccc4)cc23)c(-c2ccc(F)cc2)n1` [Example 68, 3-[3-(4-fluorophenyl)-4-(6-phenylthieno[2,3-d]pyrimidin-4-yl)-1H-pyrazol-1-yl]propan-1-ol], the pIC50 was 8.65 in experiment [1], 6.69 in the experiment with BaF3_EGFR LR/CS cells (setting [4]), 6.14 in the experiment on BaF3_EGFR d19/CS cells (setting [5]) and 8.26 in experiment [2].
Turning to `COc1ncccc1-c1cc2c(-c3cn(CC(C)(C)O)nc3-c3ccc(F)cc3)ncnc2o1` [Example 271, 1-{3-(4-fluorophenyl)-4-[6-(2-methoxypyridin-3-yl)furo[2,3-d]pyrimidin-4-yl]-1H-pyrazol-1-yl}-2-methylpropan-2-ol], the pIC50 in experiment [1] is 9.60; in the experiment with Ba/F3_EGFR WT cells (setting [3]), 5.79; in the experiment on BaF3_EGFR LR/CS cells (setting [4]), 7.69; in the experiment on BaF3_EGFR d19/CS cells (setting [5]) it was 7.85.
`Cn1cncc1-c1cc2c(-c3cn(C4CS(=O)(=O)C4)nc3-c3ccc(F)cc3)ncnc2o1` [Example 217, 3-{3-(4-fluorophenyl)-4-[6-(1-methyl-1H-imidazol-5-yl)furo[2,3-d]pyrimidin-4-yl]-1H-pyrazol-1-yl}-16-thietane-1,1-dione]: the pIC50 is 9.56 in experiment [1], 5.91 in the experiment with Ba/F3_EGFR WT cells (72 h), 6.83 with BaF3_EGFR LR/CS cells (72 h) and 7.00 in the experiment with BaF3_EGFR d19/CS cells (72 h).
`CNC(=O)c1cncc(-c2cc3c(-c4cn(C5CS(=O)(=O)C5)nc4-c4ccc(F)cc4)ncnc3o2)c1` [Example 239, 5-{4-[1-(1,1-dioxo-1λ6-thietan-3-yl)-3-(4-fluorophenyl)-1H-pyrazol-4-yl]furo[2,3-d]pyrimidin-6-yl}-N-methylpyridine-3-carboxamide]: the pIC50 in experiment [1] is 8.76; in the experiment with Ba/F3_EGFR WT cells (setting [3]) it was 4.90; in the experiment with BaF3_EGFR LR/CS cells (setting [4]), 5.83; with BaF3_EGFR d19/CS cells (setting [5]) it was 5.89.
`Cn1cnc(-c2cc3c(-c4cn([C@H]5CC5(F)F)nc4-c4ccc(F)cc4)ncnc3o2)c1` (single isomer, unassigned) [Example 274]: the pIC50 is 9.67 in experiment [1], 6.14 with Ba/F3_EGFR WT cells (setting [3]), 7.79 in the experiment on BaF3_EGFR LR/CS cells (setting [4]) and 7.63 in the experiment with BaF3_EGFR d19/CS cells (setting [5]).
Turning to `Fc1ccc(-c2nn([C@@H]3CCCOC3)cc2-c2ncnc3oc(-c4ccccc4)cc23)cc1` (single isomer, unassigned) [Example 136], the pIC50 in experiment [1] was 9.01; with Ba/F3_EGFR WT cells (setting [3]), 5.52; in the experiment on BaF3_EGFR LR/CS cells (setting [4]) it was 7.09; with BaF3_EGFR d19/CS cells (setting [5]), 6.90.
The like results for `N=[S@@]1(=O)CC[C@@H](n2cc(-c3ncnc4oc(-c5ccccc5)cc34)c(-c3ccc(F)cc3)n2)C1` (single isomer, unassigned) [Example 247] were, in that order, 10.05, 5.87, 8.06 and 7.57.
Turning to `COc1ncccc1-c1cc2c(-c3cn(CCC#N)nc3-c3ccc(F)cc3)ncnc2o1` [Example 285, 3-{3-(4-fluorophenyl)-4-[6-(2-methoxypyridin-3-yl)furo[2,3-d]pyrimidin-4-yl]-1H-pyrazol-1-yl}propanenitrile], the pIC50 in experiment [1] was 9.64; with Ba/F3_EGFR WT cells (setting [3]), 6.49; with BaF3_EGFR LR/CS cells (setting [4]), 8.31; in the experiment with BaF3_EGFR d19/CS cells (setting [5]), 8.43.
The like results for `Fc1ccc(-c2nn([C@H]3C[C@H](F)C3)cc2-c2ncnc3oc(-c4ccccc4)cc23)cc1` [Example 219, 4-{1-[(1r,3r)-3-fluorocyclobutyl]-3-(4-fluorophenyl)-1H-pyrazol-4-yl}-6-phenylfuro[2,3-d]pyrimidine] were, in that order, 8.82, 5.36, 6.66 and 6.70.
